Test results taken from the OPERA property sets (Mansouri et al. 2018).
Converted amounts (≈) assume the structure as drawn.

Conditions: not given

**Q.** Which solubility does the source give for CCOc1ccc2nc3cc(N)ccc3c(N)c2c1 here?
**A.** Its solubility is 263 mM (≈ 66600 µg/mL).

**Q.** For OC[C@@H](O)[C@H](O)[C@@H](O)CO, which solubility is on record?
**A.** The solubility was 4220 mM (≈ 642000 µg/mL).

**Q.** With CCC(Br)(CC)C(=O)NC(N)=O as the molecule, how does the solubility read?
**A.** Its solubility is 1.4 mM (≈ 333 µg/mL).

**Q.** Which solubility does the source give for CNC(=S)NCO here?
**A.** The solubility was 832 mM (≈ 100000 µg/mL).

**Q.** For CN(Cc1cc(Br)cc(Br)c1N)C1CCCCC1, which solubility is on record?
**A.** Its solubility is 10.6 mM (≈ 4000 µg/mL).

**Q.** Which solubility does the source give for O=C(C1CCCCC1)N1CC(=O)N2CCc3ccccc3C2C1 (stereo unspecified) here?
**A.** The solubility was 1.28 mM (≈ 400 µg/mL).

**Q.** Which solubility does the source give for Nc1nc(N)c(O)c(O)n1 here?
**A.** Its solubility is 20.1 mM (≈ 2850 µg/mL).

**Q.** For O=C(c1ccccc1O)N1CCOCC1, which solubility is on record?
**A.** Its solubility is 19.8 mM (≈ 4100 µg/mL).

**Q.** For CC(=O)N/N=C/c1ccc([N+](=O)[O-])o1, which solubility is on record?
**A.** The solubility was 2.54 mM (≈ 500 µg/mL).

**Q.** For CC(C)(C)OOC(C)(C)C, which solubility is on record?
**A.** The solubility was 0.684 mM (≈ 100 µg/mL).

**Q.** Which solubility does the source give for CN1C2CCCC1CC(=O)C2 here?
**A.** The solubility was 2610 mM (≈ 400000 µg/mL).

**Q.** Which solubility does the source give for O=S(=O)([O-])CS(=O)(=O)[O-].[Ca+2] here?
**A.** The solubility was 1340 mM.

**Q.** For NC(=O)N(CCO)/N=C/c1ccc([N+](=O)[O-])o1, which solubility is on record?
**A.** The solubility was 2.06 mM (≈ 500 µg/mL).

**Q.** With CCC(C)C1(CC)C(=O)N=C([O-])NC1=O.[Na+] (stereo unspecified) as the molecule, how does the solubility read?
**A.** Its solubility is 1420 mM.

**Q.** Which solubility does the source give for NC(=O)OCC(Cl)(Cl)Cl here?
**A.** The solubility was 52 mM (≈ 10000 µg/mL).

**Q.** For CN(C)CCc1ccc(O)cc1, which solubility is on record?
**A.** Its solubility is 42.4 mM (≈ 7000 µg/mL).

**Q.** Which solubility does the source give for O=C(C(Cl)Cl)N(CCO)Cc1ccc(Oc2ccc([N+](=O)[O-])cc2)cc1 here?
**A.** The solubility was 0.00751 mM (≈ 3 µg/mL).

**Q.** With Cc1cc(O)c(Cl)c(C)c1Cl as the molecule, how does the solubility read?
**A.** Its solubility is 1.05 mM (≈ 200 µg/mL).

**Q.** Which solubility does the source give for CCN(CC)C(=O)CC(C)C here?
**A.** Its solubility is 254 mM (≈ 40000 µg/mL).

**Q.** Which solubility does the source give for C=CCC(C(=O)NC(N)=O)C(C)C (stereo unspecified) here?
**A.** The solubility was 1.79 mM (≈ 330 µg/mL).

**Q.** With CCCCN(CCN(CCCC)C(=O)N1CCOCC1)C(=O)N1CCOCC1 as the molecule, how does the solubility read?
**A.** Its solubility is 1250 mM (≈ 500000 µg/mL).

**Q.** For CCC(C)(CC)OC(N)=O, which solubility is on record?
**A.** The solubility was 27.5 mM (≈ 4000 µg/mL).

**Q.** With OC(CI)CI as the molecule, how does the solubility read?
**A.** Its solubility is 40.1 mM (≈ 12500 µg/mL).

**Q.** For CC(=O)Oc1ccc(Br)cc1C(=O)O, which solubility is on record?
**A.** Its solubility is 2.57 mM (≈ 667 µg/mL).

**Q.** Which solubility does the source give for Cn1ccc(=O)c2ccccc21 here?
**A.** Its solubility is 104 mM (≈ 16600 µg/mL).

**Q.** With CCN(CC)C(=O)CSc1ccc(Cl)nn1 as the molecule, how does the solubility read?
**A.** The solubility was 19.2 mM (≈ 5000 µg/mL).

**Q.** With O=C([O-])c1ccccc1C(=O)O.[K+] as the molecule, how does the solubility read?
**A.** Its solubility is 408 mM.

**Q.** For C#CCOC(=O)/C=C(C)/C=C/CC(C)CCCC(C)C (stereo unspecified), which solubility is on record?
**A.** Its solubility is 0.0189 mM (≈ 5.22 µg/mL).

**Q.** For O=C1NCCN1/N=C/c1ccc([N+](=O)[O-])o1, which solubility is on record?
**A.** The solubility was 0.439 mM (≈ 98.5 µg/mL).

**Q.** With Nc1nc(N)c(O[C@@H]2O[C@H](CO)[C@@H](O)[C@H](O)[C@H]2O)c(=O)[nH]1 as the molecule, how does the solubility read?
**A.** The solubility was 32.9 mM (≈ 10000 µg/mL).

**Q.** Which solubility does the source give for CCC(C)C(C)(COC(N)=O)COC(N)=O (stereo unspecified) here?
**A.** Its solubility is 4.31 mM (≈ 1000 µg/mL).

**Q.** Which solubility does the source give for O=C[C@H](O)C(O)[C@H](O)CO (stereo in doubt) here?
**A.** Its solubility is 3700 mM (≈ 555000 µg/mL).

**Q.** Which solubility does the source give for Cc1cc(NS(=O)(=O)c2ccc(N)cc2)sn1 here?
**A.** The solubility was 83.9 mM (≈ 22600 µg/mL).

**Q.** For CC(=O)c1ccc(O)c(O)c1O, which solubility is on record?
**A.** Its solubility is 9.51 mM (≈ 1600 µg/mL).

**Q.** For CN(CCO)c1nc2c(c(=O)n(C)c(=O)n2C)n1C, which solubility is on record?
**A.** The solubility was 224 mM (≈ 60000 µg/mL).

**Q.** Which solubility does the source give for COC(=O)CC(C)=O here?
**A.** The solubility was 4310 mM (≈ 500000 µg/mL).

**Q.** With C=C1CCO[C@]2([C@H](O)[C@@](C)(O)CO)NC(=O)[C@@]1(O)NC2=O as the molecule, how does the solubility read?
**A.** Its solubility is 635 mM (≈ 192000 µg/mL).

**Q.** With O=P([O-])([O-])O[C@@H]1[C@@H](O)[C@H](O)[C@@H](O)[C@H](O)[C@@H]1O as the molecule, how does the solubility read?
**A.** The solubility was 1280 mM.

**Q.** For CC(=O)OC[C@H]1O[C@@](COC(C)=O)(O[C@H]2O[C@H](COC(C)=O)[C@@H](OC(C)=O)[C@H](OC(C)=O)[C@H]2OC(C)=O)[C@@H](OC(C)=O)[C@@H]1OC(C)=O, which solubility is on record?
**A.** Its solubility is 1.34 mM (≈ 910 µg/mL).

**Q.** With CC(O)C(Cl)(Cl)Cl (stereo unspecified) as the molecule, how does the solubility read?
**A.** Its solubility is 175 mM (≈ 28600 µg/mL).

**Q.** With COCc1ccc([N+](=O)[O-])o1 as the molecule, how does the solubility read?
**A.** The solubility was 70 mM (≈ 11000 µg/mL).

**Q.** With O=C(OC[C@H]1O[C@@H](Oc2ccccc2CO)[C@H](O)[C@@H](O)[C@@H]1O)c1ccccc1 as the molecule, how does the solubility read?
**A.** The solubility was 1.28 mM (≈ 500 µg/mL).

**Q.** With O=Cc1ccccc1O[C@@H]1O[C@H](CO)[C@@H](O)[C@H](O)[C@H]1O as the molecule, how does the solubility read?
**A.** Its solubility is 63.3 mM (≈ 18000 µg/mL).

**Q.** Which solubility does the source give for COc1c2c(cc3oc(=O)ccc13)OC(C)(C)C=C2 here?
**A.** The solubility was 0.155 mM (≈ 40 µg/mL).

**Q.** With CC[C@@]12CCCN3CC[C@]4(c5cccc(OC)c5N(C(C)=O)[C@@H]4CC1)[C@H]32 as the molecule, how does the solubility read?
**A.** The solubility was 47.1 mM (≈ 16700 µg/mL).

**Q.** For CC(=O)C1CCOC1=O (stereo unspecified), which solubility is on record?
**A.** Its solubility is 1560 mM (≈ 200000 µg/mL).

**Q.** For Cc1csc(NS(=O)(=O)c2ccc(N)cc2)n1, which solubility is on record?
**A.** Its solubility is 7.43 mM (≈ 2000 µg/mL).

**Q.** With CC(C[N+](C)(C)C)OC(N)=O.[Cl-] (stereo unspecified) as the molecule, how does the solubility read?
**A.** Its solubility is 3180 mM.

**Q.** For Nc1ccc(S(=O)(=O)O)c2ccc(S(=O)(=O)O)cc12, which solubility is on record?
**A.** Its solubility is 22.8 mM (≈ 6900 µg/mL).

**Q.** With CCC1(N2CCCCC2)C(=O)NC(=O)NC1=O as the molecule, how does the solubility read?
**A.** The solubility was 6.98 mM (≈ 1670 µg/mL).

**Q.** With CC1(C)[C@H]2CC[C@]1(C)C(=O)[C@H]2O as the molecule, how does the solubility read?
**A.** The solubility was 119 mM (≈ 20000 µg/mL).

**Q.** With Nc1ccc(S(=O)(=O)O)c2cc(S(=O)(=O)O)ccc12 as the molecule, how does the solubility read?
**A.** Its solubility is 551 mM (≈ 167000 µg/mL).

**Q.** For COc1ccc(C(CN(C)C)C2(O)CCCCC2)cc1.Cl (stereo unspecified), which logP is on record?
**A.** Its logP is 0.43.

**Q.** Which solubility does the source give for C=C[C@H]1C[N@@]2CC[C@H]1C[C@H]2C12Nc3ccccc3C1(O)CCO2 (stereo partly specified) here?
**A.** The solubility was 2.14 mM (≈ 667 µg/mL).

**Q.** With CN1C(=O)OC(C)(C)C1=O as the molecule, how does the solubility read?
**A.** Its solubility is 349 mM (≈ 50000 µg/mL).

Same assay, conditions: 20 °C

**Q.** For CC(=O)N(O)CCCCCNC(=O)CCC(=O)N(O)CCCCCNC(=O)CCC(=O)N(O)CCCCCN, which solubility is on record?
**A.** The solubility was 21.4 mM (≈ 12000 µg/mL).

**Q.** With Cc1ccc(C(C)C)c(O)c1C(=O)O as the molecule, how does the solubility read?
**A.** Its solubility is 0.515 mM (≈ 100 µg/mL).

**Q.** With CC(C)(C)C(O)C(Oc1ccc(Cl)cc1)n1cncn1 (stereo unspecified) as the molecule, how does the solubility read?
**A.** Its solubility is 0.406 mM (≈ 120 µg/mL).

**Q.** With CCCOc1ccc([N+](=O)[O-])cc1N as the molecule, how does the solubility read?
**A.** The solubility was 0.693 mM (≈ 136 µg/mL).

**Q.** With CC(N)c1ccccc1 (stereo unspecified) as the molecule, how does the solubility read?
**A.** The solubility was 347 mM (≈ 42000 µg/mL).

**Q.** Which solubility does the source give for CCSc1nnc(C(C)(C)C)c(=O)n1N here?
**A.** The solubility was 1.84 mM (≈ 420 µg/mL).
